{
  "source": "paper PMC3365763",
  "about": "(The Journal of Biological Chemistry, 2012)",
  "assay_type_in_all_cases": "biochemical",
  "key": {"[1]": {"target": "T1, TG2 (transglutaminase-2, transglutaminase type 2) (Homo sapiens, UniProt P21980, K265S)", "T1 sequence (P21980 1-687 K265S)": "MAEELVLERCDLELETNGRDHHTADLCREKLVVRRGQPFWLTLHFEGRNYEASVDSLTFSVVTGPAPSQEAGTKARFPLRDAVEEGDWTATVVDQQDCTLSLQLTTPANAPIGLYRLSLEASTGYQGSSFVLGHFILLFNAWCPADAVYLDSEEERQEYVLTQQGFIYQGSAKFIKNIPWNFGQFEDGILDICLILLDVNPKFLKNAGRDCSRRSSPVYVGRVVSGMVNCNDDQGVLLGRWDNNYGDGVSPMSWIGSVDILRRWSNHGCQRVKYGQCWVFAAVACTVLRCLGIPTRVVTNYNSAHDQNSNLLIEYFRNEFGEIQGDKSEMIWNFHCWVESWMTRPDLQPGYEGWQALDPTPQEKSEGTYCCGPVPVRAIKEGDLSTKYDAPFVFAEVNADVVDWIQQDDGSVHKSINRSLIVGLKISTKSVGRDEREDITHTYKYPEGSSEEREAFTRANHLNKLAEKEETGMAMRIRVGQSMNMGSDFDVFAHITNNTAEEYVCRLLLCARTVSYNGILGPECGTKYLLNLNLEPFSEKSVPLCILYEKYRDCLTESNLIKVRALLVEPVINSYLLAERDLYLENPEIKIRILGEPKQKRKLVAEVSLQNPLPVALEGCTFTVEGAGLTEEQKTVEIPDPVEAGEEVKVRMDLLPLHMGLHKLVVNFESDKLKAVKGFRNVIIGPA"}, "[2]": {"target": "T2, TG2 (transglutaminase-2, transglutaminase type 2) (Homo sapiens, UniProt P21980, K634S)", "T2 sequence (P21980 1-687 K634S)": "T1 sequence (P21980 1-687 K265S) with S265K, K634S"}, "[3]": {"target": "T3, TG2 (transglutaminase-2, transglutaminase type 2) (Homo sapiens, UniProt P21980, R263S)", "T3 sequence (P21980 1-687 R263S)": "T1 sequence (P21980 1-687 K265S) with R263S, S265K"}, "[4]": {"target": "T4, TG2 (transglutaminase-2, transglutaminase type 2) (Homo sapiens, UniProt P21980, K598S/K600S/K602S/R601S)", "T4 sequence (P21980 1-687 K598S/K600S/R601S/K602S)": "T1 sequence (P21980 1-687 K265S) with S265K, K598S, K600S, R601S, K602S"}},
  "note": "Substitutions are numbered along the chain they refer to.",
  "data": [
    {"molecule": "Nc1nc2c(ncn2[C@@H]2O[C@H](COP(=O)(O)OP(=O)(O)OP(=O)(O)O)[C@@H](O)[C@H]2O)c(=O)[nH]1", "note": "[GTP]", "values": [
      {"measurement": "IC50", "setting": "[1]", "value": "182 ± 17", "unit": "µM"},
      {"measurement": "IC50", "setting": "[2]", "value": "199 ± 36", "unit": "µM"},
      {"measurement": "IC50", "setting": "[3]", "value": "79 ± 15", "unit": "µM"},
      {"measurement": "IC50", "setting": "[4]", "value": "148 ± 26", "unit": "µM"}
    ]}
  ]
}
